In experiment [1] the test system is mTOR/p70S6K signaling pathway. The experiment is described as follows: Western blot analysis of mTOR/p70S6K signaling pathway in Jurkat T cells. It is filed as cell-based, human. The conditions noted are these: 10 ng/ml IL2, 100 nM, 24 hours, FIG. 20A. As to the method: To examine the biological activities of these compounds, western blot analysis of mTOR/p70S6K signaling pathway and T-cell proliferation assay were performed with human Jurkat T cells. T-cell viability and proliferation were assessed using alamarBlue® cell viability reagent (Invitrogen).
For the western blot analysis of mTOR/p70S6K signaling pathway, briefly, Jurkat T cell were seeded into 6-cm cell culture dish in RPM11640 medium containing 10% fetal bovine serum.
Insoluble material was collected by centrifugation at 14,000×g for 20 minutes at 4° C. The cell lysate samples were separated on 10% SDS-PAGE gels and transferred to a PVDF membrane (Millipore). The membrane blots were blocked in PBS containing 5% BSA for 1 hour at room temperature, and incubated with primary antibodies, anti-phospho-p70S6K antibody (Cell Signaling Technology, Danvers, USA) and anti-p70S6K antibody (Cell Signaling Technology), overnight at 4° C. […] Then the membranes were washed three times with TBST, and immunoreacted bands were detected with ECL™ western blotting detection reagents (Millipore) and exposed on Fujifilm (Tokyo, Japan). Relative quantification of ECL signals on X-ray films were analyzed by using Image J (NIH, Bethesda, Md., USA).

Experiment [2] relates to scFv specific for CTLA-4. The experiment is described as follows: Western blot of recombinant CTLA-4 with scFv specific for CTLA-4. In kind it is binding. As to conditions: scFv specific for CTLA-4 1 μg/ml; FIG. 14C. As to the method:
Recombinant CTLA-4 protein was analyzed and detected using western blotting. Briefly, 50 μl of the purified CTLA-4 protein was electrophoresed on the 12% SDS-PAGE gel (lane 2) and electroblotted over to a PDVF membrane. The protein (CTLA-4)-IgG1Fc-(scFv α HLA-A1) was used as a positive control (lane 1). After blocking with 5% BSA in TBST at room temperature for 1 hour, the diluted scFv specific for CTLA-4 (1 μg/ml) was added and incubated with the membrane overnight at 4° C. with gentle shaking. The membrane was rinsed and washed 3 times with TBST. The diluted HRP-conjugated protein L (1:5000) was added and incubated with the membrane at room temperature for 1 hour, and the rinse and wash cycle was repeated with TBST for 3 times. The membrane was then incubated with HRP substrate solution for 20 minutes before being exposed to the photographic film.

The target in experiment [3] is T1, PD1-IgG1.Fc (Homo sapiens, UniProt Q15116).
T1 construct: made in house; host or cells: Expi293F
T1 sequence (Q15116 with tags, fused parts or gaps): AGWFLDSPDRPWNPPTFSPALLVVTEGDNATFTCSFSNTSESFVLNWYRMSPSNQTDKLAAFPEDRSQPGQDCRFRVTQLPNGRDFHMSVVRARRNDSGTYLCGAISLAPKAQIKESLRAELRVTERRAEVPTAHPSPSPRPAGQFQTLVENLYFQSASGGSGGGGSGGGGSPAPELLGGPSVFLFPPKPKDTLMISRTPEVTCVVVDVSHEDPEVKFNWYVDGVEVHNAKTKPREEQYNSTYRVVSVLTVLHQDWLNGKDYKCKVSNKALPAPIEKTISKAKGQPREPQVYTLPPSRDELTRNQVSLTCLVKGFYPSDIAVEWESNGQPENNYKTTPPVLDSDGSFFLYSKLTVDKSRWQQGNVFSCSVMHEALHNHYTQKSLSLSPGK
The experiment is described as follows: ELISA of recombinant PD-L1 binding to PD1-IgG1.Fc. The conditions noted are these: plate coated with PD-L1 50 μg/ml; PD1-IgG1.Fc 50 μg/ml; FIG. 14D. How it is done:
Binding activity of recombinant PD-L1 protein was assayed with ELISA using a 96-well plate coated with recombinant PD-L1 protein in 50 μg/ml concentration, 100 μl per well. After the excess PD-L1 was washed off and the solid phase blocked, 100 μl per well of PD1-IgG1.Fc at 50 μg/ml was added. The bound PD1-IgG1.Fc was determined by HRP-conjugated goat anti-human IgG.Fc. 50 μl of TMB substrate was added for color development. The reaction was stopped by 50 μl of 1M HCl. Absorbance at 450 nm was measured with a plate reader. Each bar represents the mean OD450 value of duplicate samples.
In general terms: In an ELISA, binding on a coated surface is turned into a signal by an enzyme label.

Experiment [4] has as its target T2, recombinant HLA-A1 (Homo sapiens, UniProt P04439).
T2 construct: made in house; host or cells: Expi293F
The experiment is described as follows: ELISA of tetrazine-conjugated scFv specific for human HLA-A1. In kind it is binding. As to conditions: FIG. 17B. The source says: The purity of tetrazine-conjugated scFv specific for human HLA-A1 was identified through Coomassie blue staining of 12% SDS-PAGE. FIGS. 17A and 17B show, respectively, the mass spectrometric and ELISA analysis of tetrazine-conjugated scFv specific for human HLA-A1, in which unmodified scFv specific for human HLA-A1 was used as a positive control.

Experiment [5] concerns the target T3, human HLA-A2 (Homo sapiens, UniProt P04439).
T3 construct: made in house; host or cells: Expi293F
The experiment is described as follows: Single colony ELISA of phage-displayed scFvs specific for human HLA-A2. In kind it is binding. As to conditions: HLA-A2 0.5 μg/100 μl per well; FIG. 16B. How it is done: E. coli strain ER2738 infected with single-clonal phages each harboring a selected scFv gene in its phagemid was grown in the mid-log phase in 2YT broth (16 g/l tryptone, 10 g/l yeast extract, 5 g/l NaCl, pH 7.0) with 100 μg/ml ampicillin in deep well at 37° C. with shaking. After the broth reached an OD600 of 1.0, IPTG was added to a final concentration of 1 μg/ml. The plates were incubated at 37° C. overnight under rigorously shaking. Thereafter, the plates were centrifuged at 4,000 g for 15 minutes at 4° C.
For soluble scFv binding test, ELISA was carried out. Briefly, 96-well Maxisorp 96-well plate (Nunc) was coated with human HLA-A2 (0.5 μg/100 μl PBS per well) or two negative control antigens, human heat shock protein 70 (Hsp 70) and RSV-IgG1.Fc fusion protein (prepared by our laboratory), for 18 hours with shaking at 4° C. After being treated with 300 μl of blocking buffer for 1 hour, 100 μl of secreted scFv in the supernatant was mixed with 100 μl of blocking buffer and then added to the coated plate for another 1 hour. Goat anti-E-tag antibody (conjugated with HRP, 1:4000, Cat. No. AB19400, Abcam) was added to the plate for 1 hour. TMB substrate (50 μl per well) was added to the wells and the absorbance at 450 nm was measured after reactions were stopped by adding 1N HCl (50 μl per well).

As to `CO[C@H]1C[C@@H]2CC[C@@H](C)[C@@](O)(O2)C(=O)C(=O)N2CCCC[C@H]2C(=O)O[C@H]([C@H](C)C[C@@H]2CC[C@@H](OC(=O)CN)[C@H](OC)C2)CC(=O)[C@H](C)/C=C(\C)[C@@H](O)[C@@H](OC)C(=O)[C@H](C)C[C@H](C)/C=C/C=C/C=C/1C` [sirolimus-Gly, Sirolimus monoglycine], in experiment [1], the “mTOR/p70S6K signally pathway in the treated T cells, compared with unmodified sirolimus” value is given as “blocked” and the “phosphorylated level of p70S6K” value is given as “decreased”. The matching figures for `CO[C@H]1C[C@@H]2CC[C@@H](C)[C@@](O)(O2)C(=O)C(=O)N2CCCC[C@H]2C(=O)O[C@H]([C@H](C)C[C@@H]2CC[C@@H](OC(=O)CNC(=O)CN)[C@H](OC)C2)CC(=O)[C@H](C)/C=C(\C)[C@@H](O)[C@@H](OC)C(=O)[C@H](C)C[C@H](C)/C=C/C=C/C=C/1C` [sirolimus-diGly, sirolimus di-glycine]: “blocked” and “decreased”.

As for “recombinant human CTLA-4: recombinant human CTLA-4 (SEQ ID NO: 30) with GGGGSGGGGS linker and terminal cysteine”, the “binding by the scFv specific for CTLA-4 (western blot)” value in experiment [2] is “specifically bound”. For “recombinant human PD-L1: recombinant human PD-L1 (SEQ ID NO: 31) with GGGGSGGGGS linker and terminal cysteine”, the “binding to recombinant PD1-IgG1.Fc (ELISA)” value in experiment [3] is “specifically bound”.

B1: tetrazine-conjugated scFv specific for human HLA-A1: scFv specific for human HLA-A1 conjugated at C-terminal cysteine with Mal-PEG4-tetrazine (protein)
scFv: DIQMTQSPSTLSASVGDRVTITCRASQSISNWLAWYQQKPGKAPNLLIYKASSLESGVPSRFSGSGSGTEFTLTISSLQPDDFATYYCQQYHDYSVTFGAGTKVEIKRGGGGSGGGGSGGGGSEVQLLESGGGLVQPGGSQRLSCVASGVPFSNYAMNWVRQAPGKGLEWVSSISGGGDRTFYADSVKGRFTISRDNSKNTLYLQMNSLGAGDTAVYYCAKTYYDFWSGYSRHLNSWGQGSLVTVSSGGGGSGGGGSC
Consider B1, for which the “binding to recombinant HLA-A1 (ELISA)” value in experiment [4] is recorded as “bound”.

B2: 3E10: phage-displayed human scFv clone specific for human HLA-A2, SEQ ID NO: 34 (protein)
scFv: DIQMTQSPSSLSASVGDRVTITCRASQDVFFFVAWYQQKPGKAPKLLIYGPPGLYSGVPSRFSGSGSGTDFTLTISSLQPEDFATYYCQQYFSFPITFGQGTKVEIKRGGGGSIEGRSGGGGSEVQLVESGGGLVQPGGSLRLSCAASGFTISNGGIHWVRQAPGKGLEWVASIWPSGGYTSYADSVKGRFTISADTSKNTAYLQMNSLRAEDTAVYYCARFGVNYHGIMDYWGQGTLVTVSS
modifications: phage-displayed scFv specific for HLA-A2, 3E10
B2: in experiment [5], the “OD450 of binding to human HLA-A2” value came to 1.3.

Source of the values: patent publication US10300104B2, “Multi-arm linker for treating rejection reaction in transplantation” (Immunwork Inc., priority 2015, dated 2019).
